The values below come from PMC5218480 (PLoS ONE, 2017).

The subject of this assay is MV-4-11 cells. The assay is described as follows: Gene expression microarray analysis (Affymetrix PrimeView) and GSEA. Format: cell-based, human. Also noted: RFU PODN (11730768_x_at) / Fold change /veh PODN (11730768_x_at) / RFU LINC00158 (11744669_a_at) / Fold change /veh LINC00158 (11744669_a_at) / RFU DUSP10 (11751237_a_at) / Fold change /veh DUSP10 (11751237_a_at) / RFU ID3 (11757404_x_at) / Fold change /veh ID3 (11757404_x_at) / RFU PLEKHG5 (11737974_s_at) / Fold change /veh PLEKHG5 (11737974_s_at) / RFU LRRC4B (11730491_at) / Fold change /veh LRRC4B (11730491_at) / RFU GIMAP4 (11747438_a_at) / Fold change /veh GIMAP4 (11747438_a_at) / RFU KRT8 (11758183_x_at) / Fold change /veh KRT8 (11758183_x_at) / RFU CNN1 (11734310_a_at) / Fold change /veh CNN1 (11734310_a_at) / RFU VPS37D (11726825_at) / Fold change /veh VPS37D (11726825_at) / RFU C10orf10 (11716522_x_at) / Fold change /veh C10orf10 (11716522_x_at) / RFU KIR2DL2 /// KIR2DL4 /// KIR2DL5A /// KIR2DL5B /// KIR2DS1 /// KIR2DS2 /// KIR2DS3 /// KIR2DS4 /// KIR3DL3 /// KIR3DL3 /// KIR3DS1 (11738374_at) / Fold change /veh KIR2DL2 /// KIR2DL4 /// KIR2DL5A /// KIR2DL5B /// KIR2DS1 /// KIR2DS2 /// KIR2DS3 /// KIR2DS4 /// KIR3DL3 /// KIR3DL3 /// KIR3DS1 (11738374_at) / RFU C1QL1 (11718748_at) / Fold change /veh C1QL1 (11718748_at) / RFU TMPRSS4 (11747572_a_at) / Fold change /veh TMPRSS4 (11747572_a_at) / RFU HAMP (11756126_x_at) / Fold change /veh HAMP (11756126_x_at) / RFU RNFT2 (11725882_a_at) / Fold change /veh RNFT2 (11725882_a_at) / RFU NR4A2 (11747474_a_at) / Fold change /veh NR4A2 (11747474_a_at) / RFU ABCC12 (11746883_a_at) / Fold change /veh ABCC12 (11746883_a_at) / RFU TMEM136 (11760407_x_at) / Fold change /veh TMEM136 (11760407_x_at) / RFU CLDN22 /// WWC2 (11732394_at) / Fold change /veh CLDN22 /// WWC2 (11732394_at) / RFU HLA-DPB1 (11760878_x_at) / Fold change /veh HLA-DPB1 (11760878_x_at) / RFU SPINT1 (11716480_a_at) / Fold change /veh SPINT1 (11716480_a_at) / RFU GAP43 (11754022_s_at) / Fold change /veh GAP43 (11754022_s_at) / RFU A4GNT (11735810_at) / Fold change /veh A4GNT (11735810_at) / RFU PRB3 (11715151_x_at) / Fold change /veh PRB3 (11715151_x_at) / RFU TUBB4B (11761932_at) / Fold change /veh TUBB4B (11761932_at) / RFU CAPN14 (11732068_a_at) / Fold change /veh CAPN14 (11732068_a_at) / RFU TMCC2 (11721928_a_at) / Fold change /veh TMCC2 (11721928_a_at) / RFU IRGQ (11745062_a_at) / Fold change /veh IRGQ (11745062_a_at) / RFU FAM174B (11720279_a_at) / Fold change /veh FAM174B (11720279_a_at) / RFU TMPRSS4 (11748680_a_at) / Fold change /veh TMPRSS4 (11748680_a_at) / RFU FAM212B (11763350_a_at) / Fold change /veh FAM212B (11763350_a_at) / RFU PLEKHG5 (11743358_a_at) / Fold change /veh PLEKHG5 (11743358_a_at) / RFU ZSCAN30 (11745921_a_at) / Fold change /veh ZSCAN30 (11745921_a_at) / RFU CMKLR1 (11741424_a_at) / Fold change /veh CMKLR1 (11741424_a_at) / RFU LOC101060620 /// MAPK8IP1 (11723275_at) / Fold change /veh LOC101060620 /// MAPK8IP1 (11723275_at) / RFU SPTSSB (11747773_x_at) / Fold change /veh SPTSSB (11747773_x_at) / RFU PRSS12 (11739890_at) / Fold change /veh PRSS12 (11739890_at) / RFU BIN1 (11741810_x_at) / Fold change /veh BIN1 (11741810_x_at) / RFU WNT11 (11732464_a_at) / Fold change /veh WNT11 (11732464_a_at) / RFU C10orf10 (11716521_a_at) / Fold change /veh C10orf10 (11716521_a_at) / RFU C5orf56 (11738089_at) / Fold change /veh C5orf56 (11738089_at) / RFU CYB561 (11721691_x_at) / Fold change /veh CYB561 (11721691_x_at) / RFU ANKRD19P (11752326_a_at) / Fold change /veh ANKRD19P (11752326_a_at) / RFU OR2T12 /// OR2T33 /// OR2T8 (11738714_s_at) / Fold change /veh OR2T12 /// OR2T33 /// OR2T8 (11738714_s_at) / RFU VCAN (11748164_a_at) / Fold change /veh VCAN (11748164_a_at) / RFU JSRP1 (11732532_at) / Fold change /veh JSRP1 (11732532_at) / RFU KRTAP10-11 (11738290_x_at) / Fold change /veh KRTAP10-11 (11738290_x_at) / RFU MYO3A (11730013_a_at) / Fold change /veh MYO3A (11730013_a_at) / RFU EBF3 (11725865_a_at) / Fold change /veh EBF3 (11725865_a_at) / RFU CAMK2N1 (11719241_x_at) / Fold change /veh CAMK2N1 (11719241_x_at) / RFU C5orf56 (11738088_a_at) / Fold change /veh C5orf56 (11738088_a_at) / RFU OLFML3 (11715873_a_at) / Fold change /veh OLFML3 (11715873_a_at) / RFU LOC100653217 /// NTM (11731650_a_at) / Fold change /veh LOC100653217 /// NTM (11731650_a_at) / RFU MAPK11 (11762145_a_at) / Fold change /veh MAPK11 (11762145_a_at) / RFU FIZ1 (11724087_x_at) / Fold change /veh FIZ1 (11724087_x_at) / RFU OASL (11726364_x_at) / Fold change /veh OASL (11726364_x_at) / RFU SOX15 (11748057_x_at) / Fold change /veh SOX15 (11748057_x_at) / RFU CD79A (11719716_a_at) / Fold change /veh CD79A (11719716_a_at) / RFU HIST1H1D (11736915_at) / Fold change /veh HIST1H1D (11736915_at) / RFU CASKIN2 (11723855_a_at) / Fold change /veh CASKIN2 (11723855_a_at) / RFU LOC730098 (11760151_x_at) / Fold change /veh LOC730098 (11760151_x_at) / RFU OR4N2 (11742367_at) / Fold change /veh OR4N2 (11742367_at) / RFU PRRT2 (11749266_a_at) / Fold change /veh PRRT2 (11749266_a_at) / RFU SNX32 (11753110_a_at) / Fold change /veh SNX32 (11753110_a_at) / RFU CDHR5 (11726645_a_at) / Fold change /veh CDHR5 (11726645_a_at) / RFU RCAN1 (11760418_a_at) / Fold change /veh RCAN1 (11760418_a_at) / RFU FAM167A (11723789_a_at) / Fold change /veh FAM167A (11723789_a_at) / RFU FAM26E (11764081_at) / Fold change /veh FAM26E (11764081_at) / RFU ISYNA1 (11749810_s_at) / Fold change /veh ISYNA1 (11749810_s_at) / RFU ACY1 (11761880_at) / Fold change /veh ACY1 (11761880_at) / RFU 11764098_at / Fold change /veh 11764098_at / RFU SAMD14 (11745864_x_at) / Fold change /veh SAMD14 (11745864_x_at) / RFU NPB (11741838_a_at) / Fold change /veh NPB (11741838_a_at) / RFU TMPRSS6 (11731388_a_at) / Fold change /veh TMPRSS6 (11731388_a_at) / RFU KRTAP10-2 (11738614_at) / Fold change /veh KRTAP10-2 (11738614_at) / RFU ARHGAP8 /// PRR5-ARHGAP8 (11727945_x_at) / Fold change /veh ARHGAP8 /// PRR5-ARHGAP8 (11727945_x_at) / RFU KRTAP5-7 /// NADSYN1 (11734609_at) / Fold change /veh KRTAP5-7 /// NADSYN1 (11734609_at) / RFU RASL12 (11751679_a_at) / Fold change /veh RASL12 (11751679_a_at) / RFU CDKN2B (11736163_a_at) / Fold change /veh CDKN2B (11736163_a_at) / RFU PRF1 (11729649_at) / Fold change /veh PRF1 (11729649_at) / RFU, ZNF638 /// ZNF638-IT1 / Fold change vs veh, ZNF638 /// ZNF638-IT1 / RFU, PANK3 / Fold change vs veh, PANK3 / RFU, SH3YL1 / Fold change vs veh, SH3YL1 / RFU, ZEB2 / Fold change vs veh, ZEB2 / RFU, NRIP1 / Fold change vs veh, NRIP1 / RFU, PTTG1IP / Fold change vs veh, PTTG1IP / RFU, CAPN2 / Fold change vs veh, CAPN2 / RFU, MED14 / Fold change vs veh, MED14 / RFU, SNORA58 / Fold change vs veh, SNORA58 / RFU, C1orf63 / Fold change vs veh, C1orf63 / RFU, LRRFIP1 / Fold change vs veh, LRRFIP1 / RFU, NDUFAF7 / Fold change vs veh, NDUFAF7 / RFU, SLC12A2 / Fold change vs veh, SLC12A2 / RFU, IBTK / Fold change vs veh, IBTK / RFU, ESF1 / Fold change vs veh, ESF1 / Fold change vs veh, TMEM50B / RFU, TAOK1 / Fold change vs veh, TAOK1 / RFU, ACBD3 / Fold change vs veh, ACBD3 / RFU, TMA16 / Fold change vs veh, TMA16 / RFU, RWDD3 / Fold change vs veh, RWDD3 / RFU, BCAT1 / Fold change vs veh, BCAT1 / RFU, EDEM3 / Fold change vs veh, EDEM3 / RFU, TMEM33 / Fold change vs veh, TMEM33 / RFU, WDR75 / Fold change vs veh, WDR75 / RFU, AHCTF1 / Fold change vs veh, AHCTF1 / RFU, TFRC / Fold change vs veh, TFRC / RFU, ZDHHC17 / Fold change vs veh, ZDHHC17 / RFU, NOM1 / Fold change vs veh, NOM1 / RFU, ARL8B / Fold change vs veh, ARL8B / RFU, ZBTB11 / Fold change vs veh, ZBTB11 / RFU, TAMM41 / Fold change vs veh, TAMM41 / RFU, KIAA1704 /// LOC100996395 / Fold change vs veh, KIAA1704 /// LOC100996395 / RFU, ING1 / Fold change vs veh, ING1 / RFU, TRMT61B / Fold change vs veh, TRMT61B / RFU, FUBP3 / Fold change vs veh, FUBP3 / RFU, TP53 / Fold change vs veh, TP53 / RFU, TNKS2 / Fold change vs veh, TNKS2 / RFU, ZFP14 / Fold change vs veh, ZFP14 / RFU, ACTR2 / Fold change vs veh, ACTR2 / RFU, PPP3R1 / Fold change vs veh, PPP3R1 / RFU, PIK3R1 / Fold change vs veh, PIK3R1 / RFU, HNRNPA1 / Fold change vs veh, HNRNPA1 / RFU, RNF170 / Fold change vs veh, RNF170 / RFU, ZNF28 / Fold change vs veh, ZNF28 / RFU, RNGTT / Fold change vs veh, RNGTT / RFU, OGT / Fold change vs veh, OGT / RFU, BRD1 / Fold change vs veh, BRD1 / RFU, MARS / Fold change vs veh, MARS / RFU, ZNF655 / Fold change vs veh, ZNF655 / RFU, FAHD1 / Fold change vs veh, FAHD1 / RFU, BDP1 / Fold change vs veh, BDP1 / RFU, LRRCC1 / Fold change vs veh, LRRCC1 / RFU, ARID1A / Fold change vs veh, ARID1A / RFU, ZNF146 / Fold change vs veh, ZNF146 / RFU, ZNF330 / Fold change vs veh, ZNF330 / RFU, GPN3 / Fold change vs veh, GPN3 / RFU, C9orf123 / Fold change vs veh, C9orf123 / RFU, N4BP2L2 / Fold change vs veh, N4BP2L2 / RFU, ARFIP1 / Fold change vs veh, ARFIP1 / RFU, FAM179B / Fold change vs veh, FAM179B / RFU, BCL10 / Fold change vs veh, BCL10 / RFU, UHRF1BP1L / Fold change vs veh, UHRF1BP1L / RFU, BET1 / Fold change vs veh, BET1 / RFU, CNOT2 / Fold change vs veh, CNOT2 / RFU, ZNF268 / Fold change vs veh, ZNF268 / Fold change vs veh, ZNF507 / RFU, DGCR2 / Fold change vs veh, DGCR2 / RFU, WDSUB1 / Fold change vs veh, WDSUB1 / Fold change vs veh, HSP90B1 /// MIR3652 / RFU, ADSS / Fold change vs veh, ADSS / RFU, GK / Fold change vs veh, GK / RFU, ZNF148 / Fold change vs veh, ZNF148 / RFU, TAF9 / Fold change vs veh, TAF9 / RFU, SLC1A5 / Fold change vs veh, SLC1A5 / RFU, SLMO2 / Fold change vs veh, SLMO2 / RFU, ABCC4 / Fold change vs veh, ABCC4 / RFU, LOC101060439 /// RAP1B / Fold change vs veh, LOC101060439 /// RAP1B / RFU, RFX7 / Fold change vs veh, RFX7 / RFU, GTPBP10 / Fold change vs veh, GTPBP10 / RFU, CNEP1R1 / Fold change vs veh, CNEP1R1 / RFU, BIVM-ERCC5 /// ERCC5 / Fold change vs veh, BIVM-ERCC5 /// ERCC5 / RFU, ILF3 / Fold change vs veh, ILF3 / RFU 11762660_at / Fold change /veh 11762660_at / RFU VCAN (11757783_s_at) / Fold change /veh VCAN (11757783_s_at) / RFU DDX43 (11728927_at) / Fold change /veh DDX43 (11728927_at) / RFU KRT8 (11758188_x_at) / Fold change /veh KRT8 (11758188_x_at) / RFU NKD1 (11759106_at) / Fold change /veh NKD1 (11759106_at) / RFU SRD5A1 (11742802_a_at) / Fold change /veh SRD5A1 (11742802_a_at) / RFU TPSAB1 /// TPSB2 (11721975_s_at) / Fold change /veh TPSAB1 /// TPSB2 (11721975_s_at) / RFU GSTM3 (11746129_a_at) / Fold change /veh GSTM3 (11746129_a_at) / RFU IL23R (11737362_x_at) / Fold change /veh IL23R (11737362_x_at) / RFU TMEM51 (11727254_a_at) / Fold change /veh TMEM51 (11727254_a_at) / RFU PIWIL2 (11732686_x_at) / Fold change /veh PIWIL2 (11732686_x_at) / RFU ORM1 (11744905_x_at) / Fold change /veh ORM1 (11744905_x_at) / RFU CCDC152 (11743942_at) / Fold change /veh CCDC152 (11743942_at) / RFU ECM1 (11717891_a_at) / Fold change /veh ECM1 (11717891_a_at) / RFU IL23R (11748794_a_at) / Fold change /veh IL23R (11748794_a_at) / RFU TNFAIP8L3 (11732012_x_at) / Fold change /veh TNFAIP8L3 (11732012_x_at) / RFU MBOAT4 (11741988_at) / Fold change /veh MBOAT4 (11741988_at) / RFU 11764193_at / Fold change /veh 11764193_at / RFU TMEM53 (11763286_at) / Fold change /veh TMEM53 (11763286_at) / RFU MAGEB2 (11727129_at) / Fold change /veh MAGEB2 (11727129_at) / RFU TMEM200A (11744735_a_at) / Fold change /veh TMEM200A (11744735_a_at) / RFU CCDC152 (11751479_a_at) / Fold change /veh CCDC152 (11751479_a_at) / RFU FAM211A (11726209_a_at) / Fold change /veh FAM211A (11726209_a_at) / RFU RGS16 (11746705_a_at) / Fold change /veh RGS16 (11746705_a_at) / RFU VCAN (11755009_s_at) / Fold change /veh VCAN (11755009_s_at) / RFU RHOB (11743442_s_at) / Fold change /veh RHOB (11743442_s_at) / RFU RGS16 (11720943_a_at) / Fold change /veh RGS16 (11720943_a_at) / RFU RGS16 (11720944_at) / Fold change /veh RGS16 (11720944_at) / RFU, VPS4B / Fold change vs veh, VPS4B / RFU, CREB1 / Fold change vs veh, CREB1 / RFU, DNAJC13 / Fold change vs veh, DNAJC13 / RFU, GNAQ / Fold change vs veh, GNAQ / RFU, CDK5R1 / Fold change vs veh, CDK5R1 / RFU, ZRANB3 / Fold change vs veh, ZRANB3 / RFU, CUL4A / Fold change vs veh, CUL4A / RFU, CCNY / Fold change vs veh, CCNY / RFU, UFL1 / Fold change vs veh, UFL1 / RFU, COG3 / Fold change vs veh, COG3 / RFU, DIAPH2 / Fold change vs veh, DIAPH2 / RFU, SKA2 / Fold change vs veh, SKA2 / RFU, AFF3 / Fold change vs veh, AFF3 / RFU, LMF1 / Fold change vs veh, LMF1 / RFU, IPO11 / Fold change vs veh, IPO11 / RFU, DFFB / Fold change vs veh, DFFB / RFU, FOXP1 / Fold change vs veh, FOXP1 / RFU, CARD8 / Fold change vs veh, CARD8 / RFU, STRN3 / Fold change vs veh, STRN3 / RFU, ADK / Fold change vs veh, ADK / RFU, RASSF2 / Fold change vs veh, RASSF2 / RFU, WIPF1 / Fold change vs veh, WIPF1 / RFU, LARP1B / Fold change vs veh, LARP1B / RFU, RASA1 / Fold change vs veh, RASA1 / RFU, RB1 / Fold change vs veh, RB1 / RFU, PPFIA1 / Fold change vs veh, PPFIA1 / RFU, MAT2A / Fold change vs veh, MAT2A / RFU, CCT5 / Fold change vs veh, CCT5 / RFU, WDR92 / Fold change vs veh, WDR92 / RFU, CUX1 / Fold change vs veh, CUX1 / RFU, TTC7A / Fold change vs veh, TTC7A / RFU, TMEM135 / Fold change vs veh, TMEM135 / RFU, DEPTOR / Fold change vs veh, DEPTOR / RFU, CPM / Fold change vs veh, CPM / RFU, DNAJB6 / Fold change vs veh, DNAJB6 / RFU, CACNA2D3 / Fold change vs veh, CACNA2D3 / RFU, DTX4 / Fold change vs veh, DTX4 / RFU, TFCP2 / Fold change vs veh, TFCP2 / RFU, GMCL1 /// GMCL1P1 / Fold change vs veh, GMCL1 /// GMCL1P1 / RFU, AEBP2 / Fold change vs veh, AEBP2 / RFU, SNHG1 /// SNORD22 /// SNORD25 /// SNORD26 /// SNORD27 /// SNORD28 /// SNORD29 /// SNORD31 / Fold change vs veh, SNHG1 /// SNORD22 /// SNORD25 /// SNORD26 /// SNORD27 /// SNORD28 /// SNORD29 /// SNORD31 / Fold change (Aza/veh), C12orf56 (ProbeSet 11735607_a_at) / Fold change (ACY-1035/veh), C12orf56 (ProbeSet 11735607_a_at) / Fold change (Aza/veh), FGFR1OP (ProbeSet 11751329_s_at) / Fold change (ACY-1035/veh), FGFR1OP (ProbeSet 11751329_s_at) / Fold change (Aza/veh), VPS36 (ProbeSet 11739960_a_at) / Fold change (ACY-1035/veh), VPS36 (ProbeSet 11739960_a_at) / RFU SYPL1 (11715823_x_at) / Fold change /veh SYPL1 (11715823_x_at) / RFU IGFBP7 (11715501_s_at) / Fold change /veh IGFBP7 (11715501_s_at) / RFU REEP3 (11722064_at) / Fold change /veh REEP3 (11722064_at) / RFU IGLL1 (11728026_x_at) / Fold change /veh IGLL1 (11728026_x_at): dose or concentration left out as unconfirmed. Conditions: MV-4-11 cells, 48 hours.

For the compound `Nc1ccc(-c2cccs2)cc1NC(=O)c1ccc2c(c1)cc(C1CC1)n2CCN1CCOCC1` [ACY-1035], the “RFU 11764193_at” value was found to be 28.66 RFU.
